Data reported in US20060063736A1, “Compositions and methods for inhibiting mucin-type O-linked glycosylation” (priority 2004, published 2006).
Where “and” joins values, the source holds several entries; their conditions need not be identical. Identical values can stand only once. Values belong to the molecule of their own block, whether it stands above or below them. No end group written: not given here.

Tests used:
[1] = target: T1, mppGalNAcT-1 (Mus musculus, UniProt O08912); experiment: ELLA for ppGalNAcTs, mppGalNAcT-1; assay type: biochemical, murine; settings: mppGalNAcT-1, ELLA validation
T1 construct: plasmids encoding truncated secreted ppGalNAcTs-1 to −5, -7, -10 and -11; made in house; host or cells: COS-7
T1 sequence (O08912 29-559 limits assumed): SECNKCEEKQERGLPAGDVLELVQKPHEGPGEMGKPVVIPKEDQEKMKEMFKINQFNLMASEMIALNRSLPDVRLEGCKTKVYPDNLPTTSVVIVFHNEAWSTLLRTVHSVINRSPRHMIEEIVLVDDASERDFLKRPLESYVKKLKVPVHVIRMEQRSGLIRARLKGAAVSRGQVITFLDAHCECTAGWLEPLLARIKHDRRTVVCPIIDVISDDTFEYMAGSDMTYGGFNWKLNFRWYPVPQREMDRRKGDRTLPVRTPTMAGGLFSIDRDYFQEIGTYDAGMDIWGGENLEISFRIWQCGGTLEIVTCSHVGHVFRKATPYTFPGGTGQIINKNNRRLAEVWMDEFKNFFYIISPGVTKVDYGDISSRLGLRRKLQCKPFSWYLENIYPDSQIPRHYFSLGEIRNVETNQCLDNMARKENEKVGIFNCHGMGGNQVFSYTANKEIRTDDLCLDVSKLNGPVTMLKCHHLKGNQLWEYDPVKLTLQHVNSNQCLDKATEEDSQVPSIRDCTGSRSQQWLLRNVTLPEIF
Procedure: COS-7 cells were transiently transfected with plasmids encoding truncated secreted ppGalNAcTs-1 to −5, -7, -10 and -11 as previously described. Hagen et al. (1997) J. Biol. Chem. 272:13843-13848. The crude conditioned medium was used as the enzyme source.
Standard reaction conditions for ppGalNAcT assays were as follows. The reaction mixture contained the following components in a final volume of 25 μL: 10 mM MnCl2, 40 mM sodium cacodylate, 40 mM β-mercaptoethanol, 0.1% Triton X-100, pH 6.5, 5 μL of conditioned media, and various concentrations of EA2 peptide 4, UDP-GalNAc and inhibitor. All uridine-based compounds were dissolved in dimethyl sulfoxide (DMSO). The concentration of DMSO in the reaction mixture was limited to 2% (v/v), as higher concentrations decreased ppGalNAcT activity. For inhibitor assays, reaction mixtures for positive controls also contained 2% DMSO. Unless otherwise stated, inhibitor assays were performed using 20 μM UDP-GalNAc and 50 μM EA2 peptide 4, the KM values for both substrates. Reactions were incubated at 37° C. and were terminated by the addition of 10 μL of 0.1 M EDTA. All experiments were performed in duplicate. Reaction rates were linear over the period monitored (20-30 min).
96-Well NeutrAvidin-coated plates were prewashed 3 times with 200 μL of wash buffer (25 mM Tris, 150 mM NaCl, 0.1% bovine serum albumin (BSA) (w/v), and 0.05% Tween (v/v), pH 7.2). Reactions were then transferred to the 96-well plates, incubated for 1 hour at room temperature (rt) and subsequently washed 3 times with 200 μL of phosphate-buffered saline (PBS) containing 0.5% BSA and 0.05% Tween, pH 7.1. A 100-μL solution of HPA-HRP in standard PBS buffer (1 μg/mL, pH 7.4) was added and the reaction was incubated for 1 h at rt. After 3 washes with 200 μL of PBS, bound HPA-HRP was quantified by the addition of 100 μL of TMB peroxide solution. The solutions were incubated for 5-15 min in the dark at rt. HRP activity was terminated by the addition of 50 μL of 2 N H2SO4 and the resulting solution was analyzed at 450 nm using a UV/Vis microtiter plate reader. The amount of product generated by the ppGalNAcT was extrapolated from absorbance values using an equation fit to the standard curve derived from Origin 6.1 software.
In order to screen the library in high-throughput format, a non-radioactive enzyme linked lectin assay (ELLA) for ppGalNAcTs was developed. As an acceptor substrate, the EA2 peptide (PTTDSTTPAPTTK; SEQ ID NO:12), a fragment of rat submandibular mucin, was chosen. Albone et al. (1994) J. Biol. Chem. 269:16845-16852. This peptide has been previously shown to be an efficient substrate for murine (m) ppGalNAcT-1 and is preferentially glycosylated at the fourth Thr residue from the N-terminus (underlined). Ten Hagen et al. (2001, supra). Biotinylation of EA2 allowed capture of (glyco)peptides onto 96-well NeutrAvidin-coated plates. The GalNAc-modified glycopeptide product could be detected using the α-GalNAc-specific lectin Helix pomatia agglutinin (HPA) (Hammarstrom et al. (1977) Biochemistry 16:2750-2755) conjugated to horseradish peroxidase (HRP). The bound HRP was quantified by addition of a chromogenic substrate.

[2] = system: Jurkat cells; experiment: Con A staining of N-linked glycans on Jurkat cells, flow cytometry; assay type: cell-based, human; settings: 2 d treatment
Procedure: (§1) Jurkat cells were seeded at 250,000 cells/well (determined by Coulter cell counter) in 12-well polystyrene tissue culture plates in 1.0 mL of media and treated with various concentrations of 1-68A or 2-68A from 50 mM dimethyl sulfoxide (DMSO) stock solutions or doxorubicin or campothecin from 1 mM DMSO stock solutions. After 2 d, cells were harvested, washed twice with PBS buffer (PBS, pH 7.4, 0.1% FCS, 0.1% NaN3 w/v) and stained with FITC-HPA (1 μg/mL) or FITC-Con A (5 μg/mL with 1 mM CaCl2) in PBS, pH 7.4 in the dark for 1 h at 4° C. Cells were washed twice with PBS buffer, resuspended in 300 μL of PBS buffer and analyzed by flow cytometry (FacsCaliber, BD Instruments). Annexin-V staining was performed according to the manufacturer's protocols (Invitrogen).
(§2) To directly monitor ppGalNAcT activities in cells, Jurkat cells (human T-cell lymphoma), which are known to produce only the Tn-antigen (FIG. 1) as their O-linked glycans, were chosen. Piller et al. (1990) J. Biol. Chem. 265:9264-9271. Changes in Tn-antigen expression on the surface of Jurkat cells were monitored by HPA binding followed by flow cytometry analysis. Con A staining of N-linked glycans was used as a control for non-specific inhibition of protein glycosylation. Baenziger and Fiete (1979) J. Biol. Chem. 254:2400-2407.

[3] = system: Jurkat cells; experiment: Annexin-V staining of Jurkat cells (apoptosis); assay type: cell-based, human; settings: 2 d treatment
Procedure: as §1, §2

[4] = system: Jurkat cells; experiment: HPA staining of Jurkat cells (Tn-antigen), flow cytometry; assay type: cell-based, human; settings: Jurkat cells, 2 d treatment
Procedure: as §1, §2

[5] = target: C-terminal biotinylated EA2* glycopeptide 5 (…; SEQ ID NO:17) (rat); experiment: enzyme-linked lectin assay (ELLA): 15% glycopeptide 5 (9 pmol) on NeutrAvidin plates, detected with HPA-HRP
[6] = target: T2, C-terminal biotinylated EA2 peptide 4 (PTTKDSTTPAPTTKK; SEQ ID NO:16)
T2 chain: PTTKDSTTPAPTTKK

Ki ([1]; read-out: KI value for the product UDP): 251 µM and 250 µM
Molecule: O=c1ccn([C@@H]2O[C@H](COP(=O)(O)OP(=O)(O)O)[C@@H](O)[C@H]2O)c(=O)[nH]1 [UDP, reference compound]

Molecule: CC[C@@]1(O)C(=O)OCc2c1cc1n(c2=O)Cc2cc3ccccc3nc2-1 [campothecin, reference compound]
effect on Con A staining [2]: reduced
Annexin-V staining (induction of apoptosis) [3]: induced Annexin V binding at levels comparable to 1-68A
effect on HPA staining [4]: reduced

Molecule: COc1cccc2c1C(=O)c1c(O)c3c(c(O)c1C2=O)C[C@@](O)(C(=O)CO)C[C@@H]3O[C@H]1C[C@H](N)[C@H](O)[C@H](C)O1 [doxorubicin, reference compound]
effect on Con A staining [2]: reduced
Annexin-V staining (induction of apoptosis) [3]: induced Annexin V binding at levels comparable to 1-68A
effect on HPA staining [4]: reduced

Km [1]: 48 ± 4 µM
Molecule: EA2 peptide 4: C-terminal biotinylated EA2 peptide (PTTKDSTTPAPTTKK; SEQ ID NO:16), fragment of rat submandibular mucin, acceptor substrate (PTTKDSTTPAPTTKK-biotin) [reference compound]

signal to noise ratio (fold above background) [5]: 30
Molecule: Helix pomatia agglutinin (HPA) conjugated to horse radish peroxidase (HPA-HRP)

Molecule: uridine diphosphate N-acetyl-α-galactosamine [UDP-GalNAc, reference compound]
Km [1]: 13.9 µM and 14 µM

B1: murine polypeptide N-acetyl-α-galactosaminyltransferase-1 (mppGalNAcT-1) (protein)
chain: GLPAGDVLELVQKPHEGPGEMGKPVVIPKEDQEKMKEMFKINQFNLMASEMIALNRSLPDVRLEGCKTKVYPDNLPTTSVVIVFHNEAWSTLLRTVHSVINRSPRHMIEEIVLVDDASERDFLKRPLESYVKKLKVPVHVIRMEQRSGLIRARLKGAAVSRGQVITFLDAHCECTAGWLEPLLARIKHDRRTVVCPIIDVISDDTFEYMAGSDMTYGGFNWKLNFRWYPVPQREMDRRKGDRTLPVRTPTMAGGLFSIDRDYFQEIGTYDAGMDIWGGENLEISFRIWQCGGTLEIVTCSHVGHVFRKATPYTFPGGTGQIINKNNRRLAEVWMDEFKNFFYIISPGVTKVDYGDISSRLGLRRKLQCKPFSWYLENIYPDSQIPRHYFSLGEIRNVETNQCLDNMARKENEKVGIFNCHGMGGNQVFSYTANKEIRTDDLCLDVSKLNGPVTMLKCHHLKGNQLWEYDPVKLTLQHVNSNQCLDKATEEDSQVPSIRDCTGSRSQQWLLRNVTLPEIF
KM (ELLA enzyme kinetics) [6]: 48.0 ± 4.0 µM
